In assay [1] the test system is PAF-stimulated PMN locomotion in the rat mesentery. As to the kind of experiment: Intravital time lapse videomicroscopy of PMN locomotion in rat mesentery in vivo. The conditions noted are these: PAF 10^-7 M. As to the method:
Intravital time lapse videomicroscopy of PMN locomotion in vivo. PMN locomotion in rat mesenteric tissue was studied through use of intravital time lapse videomicroscopy according to the protocol previously described in detail (Werr et al., supra). In brief, Wistar rats (200-250 g) were anesthetized with equal parts of fluanison/fentanyl (10/0.2 mg/ml; Hypnorm; Janssen-Cilag Ltd., Saunderton, UK) and midazolam (5 mg/ml; Dormicum; Hoffman-La Roche, Basel, Switzerland) diluted 1:1 with sterile water (2 ml/kg i.m.). Body temperature was maintained at 37° C. by a heating pad connected to a rectal thermistor. After laparotomy, a segment of the ileum was exposed on a heated transparent pedestal to allow microscopic observation of the mesenteric microvasculature (Orthoplan microscope equipped with water immersion lens SW×25, NA 0.60; Leitz, Wetzlar, Germany). The microscopic image was televised and recorded on time lapse video (at 1/7 of normal speed). Analysis of leukocyte migration in the mesenteric tissue was made off line and the migration path of individual leukocytes was tracked with a digital image analyzer.
Leukocyte extravasation and migration was induced by soaking the exposed mesentery with 5 ml bicarbonate buffer solution (37° C.) containing PAF at a concentration of 10^−7 M. The tissue was then covered with a transparent plastic film to provide continues chemotactic stimulation by PAF. After 40 min of chemotactic stimulation, when numerous leukocytes had extravasated, time lapse recording of leukocyte migration was undertaken, first for 20 min to assess basal migration rates in response to PAF stimulation, and then for additional 40 min in the presence of PAF together with antibodies or peptides. The antibody concentration in the mixture administered to the tissue was for all antibodies 100 μg/ml. The peptide DGEA was similarly administered at a concentration of 25 mM and SLIDIP/RGDGW at a concentration of 500 μM. Due to dilution of the reagent in fluid covering the tissue these seemingly high doses, ˜10 times the documented effective blocking dose, were chosen in order to reach a sufficient concentration in proximity of the migrating leukocytes in the tissue. […] As previously documented, more than 85% of the migrating cells were neutrophils (Werr et al., supra).

Assay [2] has as its system fMLP-stimulated human PMN locomotion in collagen (type I) gels. In words: PMN migration in gels of collagen (type I). The class given is cell-based. The conditions noted are these: fMLP 10^-7 M; DGEA 5 mM; 30 min at 37° C. As to the method:
PMN migration in gels of collagen (type I) and gelatin. Gels were formed in 24-well culture dishes (250 μl/well) by mixing 8.5 volumes of rat collagen solution or bovine gelatin solution (Sigma) at a concentration of 1.5 mg/ml with 1 volume of ×10 MEM (Life Technologies, Gaithersburg, Md.) and 0.5 volume of 4.4% NaHCO3 and fMLP (final concentration 10^−7 M). Purified human PMN (0.5×106), suspended in 200 μl of MEM containing 10^−9 fMLP were placed on top of the gels and incubated with or without mAb:s or peptides for 30 min at 37° C. The final concentration was for all mAb:s 20 μg/ml, for DGEA 5 mM and for SLIDIP/RGDGW 100 μM. Four to six experiments were run in duplicate gels for each reagent tested and ten randomly chosen microscopic fields (with a defined area of 0.0625 mm) were analyzed in each gel. The migration of PMN into the gel was analyzed with an Leitz Orthoplan microscope equipped with a water immersion lens (Leitz UO×55W, NA 0.80) by focusing down through the gel. The calibrated micrometer scale in the fine focus adjustment was used to determine the migration distance of individual PMN from the upper gel surface. The average migration distance of the three leading cells in each field was calculated and defined as the migration distance of the leading front.

The mark [3] stands for this setting: ten-fold higher concentrations of SLIDIP/RGDGW in some experiments.

Take ACRGDGWMCG: the “effect on PMN migration (in words)” value was “did not yield different effects” in assay [1] (setting [3]) and “without effect” in assay [1] (topical SLIDIP/RGDGW 500 μM).
On to DGEA, for which the “inhibition of PMN migration velocity” value in assay [1] (topical DGEA 25 mM, p<0.001) is 70±10%. The “migration distance of the leading front in collagen gels (in words)” value in assay [2] is listed as “to the level of non-stimulated cells”.
With SLIDIP, the “effect on PMN migration (in words)” value is listed as “did not yield different effects” in assay [1] (setting [3]) and “without effect” in assay [1] (topical SLIDIP/RGDGW 500 μM).

(Values after US20030012780A1, “Anti-inflammatory medicaments” (Karolinska Innovation AB, priority 1998, published 2003).)
